For this assay, the target named is T1, PDE3 (Homo sapiens, UniProt Q14432).
T1 construct: from tissue; host or cells: human platelets
The assay can be described thus: In vitro assay for cAMP PDE-3 inhibitory activity. Format: biochemical. The settings on record: human platelet cyclic AMP phosphodiesterase, bound stated. Here is the method: Human platelet cyclic AMP phosphodiesterase was prepared according to the method of Alvarez et al., Mol. Pharmacol. 29: 554 (1986). The PDE incubation medium contained 10 mM Tris-HCl buffer, pH 7.7, 10 mM MgSO4, and 1 μM […] (0.2 μCi) in a total volume of 1.0 mL. Test compounds were dissolved in DMSO immediately prior to addition to the incubation medium, and the resulting mixture was allowed to stand for 10 minutes prior to the addition of enzyme. Following the addition of PDE, the contents were mixed and incubated for 10 minutes at 30° C. Three assays each were performed for each of five test compound concentrations, the mean of the determinations (n=3) at each concentration was plotted, and IC50 values were determined graphically.
The ability of Compounds 25 and 8c to inhibit PDE3 and β-adrenergic receptor activity was examined both in vitro and in vivo. […] Non-selective β-adrenergic and β1-adrenergic radioligand binding assays were performed using rat cortical membranes; β2-adrenergic receptor assays were performed using membranes isolated from CHO cells expressing human, recombinant b2-adrenergic receptor; non-selective α1-adrenergic receptor assays were performed using rat forebrain membranes; and PDE3 binding assays were performed on human platelets. Values in percent illustrate percent inhibition at 1000 nM concentration.

The mark [1] stands for this setting: read-out: PDE IC50 inhibition values.

Like-named read-outs stand apart in the source and are kept apart here. Where only a bound is given, the exact number is not on record here.

T1 sequence (Q14432 whole entry): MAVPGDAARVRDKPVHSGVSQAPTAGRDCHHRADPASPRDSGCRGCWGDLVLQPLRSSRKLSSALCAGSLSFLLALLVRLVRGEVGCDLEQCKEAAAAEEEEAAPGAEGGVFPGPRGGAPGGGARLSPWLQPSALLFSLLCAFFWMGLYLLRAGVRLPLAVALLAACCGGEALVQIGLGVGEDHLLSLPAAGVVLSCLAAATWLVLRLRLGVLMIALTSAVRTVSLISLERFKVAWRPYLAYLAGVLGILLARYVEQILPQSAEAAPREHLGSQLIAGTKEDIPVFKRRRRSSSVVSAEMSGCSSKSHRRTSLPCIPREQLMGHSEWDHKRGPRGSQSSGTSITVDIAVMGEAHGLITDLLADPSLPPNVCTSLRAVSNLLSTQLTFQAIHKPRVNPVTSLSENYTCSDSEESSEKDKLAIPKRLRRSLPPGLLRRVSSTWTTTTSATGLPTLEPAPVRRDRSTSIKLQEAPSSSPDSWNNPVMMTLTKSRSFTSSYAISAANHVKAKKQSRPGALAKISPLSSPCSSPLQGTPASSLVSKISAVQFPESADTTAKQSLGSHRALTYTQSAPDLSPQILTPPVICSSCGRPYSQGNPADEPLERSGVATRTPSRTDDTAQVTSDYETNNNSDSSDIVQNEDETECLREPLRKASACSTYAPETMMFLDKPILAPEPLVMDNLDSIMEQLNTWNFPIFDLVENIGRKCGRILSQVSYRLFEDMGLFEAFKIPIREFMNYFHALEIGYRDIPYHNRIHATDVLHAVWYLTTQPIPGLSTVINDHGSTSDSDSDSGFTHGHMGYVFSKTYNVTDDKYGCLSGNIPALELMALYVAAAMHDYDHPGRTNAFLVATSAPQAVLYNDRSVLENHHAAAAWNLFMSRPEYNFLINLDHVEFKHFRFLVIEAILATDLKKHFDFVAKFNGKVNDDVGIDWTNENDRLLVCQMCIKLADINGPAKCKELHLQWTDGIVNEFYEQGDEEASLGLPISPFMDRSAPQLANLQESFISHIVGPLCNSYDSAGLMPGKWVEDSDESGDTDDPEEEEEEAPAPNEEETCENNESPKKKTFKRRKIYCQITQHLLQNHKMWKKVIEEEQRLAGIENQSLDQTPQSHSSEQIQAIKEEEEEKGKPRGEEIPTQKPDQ

A word on the IC50: it is the point on the concentration scale where inhibition reaches its midpoint. Turning to `COCCc1ccc(OCC(O)CNC2CCN(C(=O)COc3ccc(C4=NNC(=O)CC4)cc3Cl)CC2)cc1` (racemic) [Compound 13, 6-{3-Chloro-4-[2-(4-{2-hydroxy-3-[4-(2-methoxy-ethyl)-phenoxy]-propylamino}-piperidin-1-yl)-2-oxo-ethoxy]-phenyl}-4,5-dihydro-2H-pyridazin-3-one], the IC50 (read-out: PDE3 inhibition IC50) was under 1000 nM.

With `O=C1CCC(c2ccc(OCC(=O)N3CCC(NC[C@H](O)COc4ccccc4)CC3)c(Cl)c2)=NN1` [Compound 8a, 6-(3-chloro-4-{2-[4-(2-hydroxy-3-phenoxy-propylamino)-piperidin-1-yl]-2-oxo-ethoxy}-phenyl)-4,5-dihydro-2H-pyridazin-3-one], the IC50 (read-out: PDE3 inhibition IC50) was under 1000 nM.

With `O=C1CCC(c2ccc(OCC(=O)N3CCC(NC[C@H](O)COc4ccccc4F)CC3)c(Cl)c2)=NN1` [Compound 8b, 6-[3-Chloro-4-(2-{4-[3-(2-fluoro-phenoxy)-2-hydroxy-propylamino]-piperidin-1-yl}-2-oxo-ethoxy)-phenyl]-4,5-dihydro-2H-pyridazin-3-one], the IC50 (read-out: PDE3 inhibition IC50) was under 1000 nM.

For the compound `N#Cc1ccccc1OC[C@@H](O)CNC1CCN(C(=O)COc2ccc(C3=NNC(=O)CC3)cc2Cl)CC1` [Compound 8e, 2-[3-(1-{2-[2-chloro-4-(6-oxo-1,4,5,6-tetrahydro-pyridazin-3-yl)-phenoxy]-acetyl}-piperidin-4-ylamino)-2-hydroxy-propoxy]-benzonitrile], the IC50 (read-out: PDE3 inhibition IC50) is under 1000 nM.

For `Cc1ccccc1OC[C@@H](O)CNC1CCN(C(=O)COc2ccc(C3=NNC(=O)CC3)cc2Cl)CC1` [Compound 8f, 6-(3-chloro-4-{2-[4-(2-hydroxy-3-o-tolyloxy-propylamino)-piperidin-1-yl]-2-oxo-ethoxy}-phenyl)-4,5-dihydro-2H-pyridazin-3-one], the IC50 (read-out: PDE3 inhibition IC50) was under 1000 nM.

`COc1ccccc1OC[C@@H](O)CNC1CCN(C(=O)COc2ccc(C3=NNC(=O)CC3)cc2Cl)CC1` [Compound 8h, 6-[3-chloro-4-(2-{4-[2-hydroxy-3-(2-methoxy-phenoxy)-propylamino]-piperidin-1-yl}-2-oxo-ethoxy)-phenyl]-4,5-dihydro-2H-pyridazin-3-one]: the IC50 (read-out: PDE3 inhibition IC50) is under 1000 nM.

Turning to `O=C1CCC(c2ccc(OCC(=O)N3CCC(NC[C@H](O)COc4ccccc4OC(F)(F)F)CC3)c(Cl)c2)=NN1` [Compound 8i, 6-[3-chloro-4-(2-{4-[2-hydroxy-3-(2-trifluoromethoxy-phenoxy)-propylamino]-piperidin-1-yl}-2-oxo-ethoxy)-phenyl]-4,5-dihydro-2H-pyridazin-3-one], the IC50 (read-out: PDE3 inhibition IC50) is under 1000 nM and the IC50 under setting [1] is under 100 nM.

For `C=CCc1ccccc1OC[C@@H](O)CNC1CCN(C(=O)COc2ccc(C3=NNC(=O)CC3)cc2Cl)CC1` [Compound 8j, 6-[4-(2-{4-[3-(2-allyl-phenoxy)-2-hydroxy-propylamino]-piperidin-1-yl}-2-oxo-ethoxy)-3-chloro-phenyl]-4,5-dihydro-2H-pyridazin-3-one], the IC50 was under 1000 nM (read-out: PDE3 inhibition IC50) and under 100 nM under setting [1].

Take `CC(=O)c1ccccc1OC[C@@H](O)CNC1CCN(C(=O)COc2ccc(C3=NNC(=O)CC3)cc2Cl)CC1` [Compound 8k, 6-[4-(2-{4-[3-(2-acetyl-phenoxy)-2-hydroxy-propylamino]-piperidin-1-yl}-2-oxo-ethoxy)-3-chloro-phenyl]-4,5-dihydro-2H-pyridazin-3-one]: the IC50 (read-out: PDE3 inhibition IC50) is under 1000 nM.

Regarding `O=C1CCC(c2ccc(OCC(=O)N3CCC(NC[C@H](O)COc4cccc(Br)c4)CC3)c(Cl)c2)=NN1` [Compound 8l, 6-[4-(2-{4-[3-(3-bromo-phenoxy)-2-hydroxy-propylamino]-piperidin-1-yl}-2-oxo-ethoxy)-3-chloro-phenyl]-4,5-dihydro-2H-pyridazin-3-one], the IC50 (read-out: PDE3 inhibition IC50) was under 1000 nM.

As to `N#Cc1cccc(OC[C@@H](O)CNC2CCN(C(=O)COc3ccc(C4=NNC(=O)CC4)cc3Cl)CC2)c1` [Compound 8m, 3-[3-(1-{2-[2-chloro-4-(6-oxo-1,4,5,6-tetrahydro-pyridazin-3-yl)-phenoxy]-acetyl}-piperidin-4-ylamino)-2-hydroxy-propoxy]-benzonitrile], where the note is “read-out: PDE3 inhibition IC50”, the IC50 was under 1000 nM.

`N#Cc1ccc(OC[C@@H](O)CNC2CCN(C(=O)COc3ccc(C4=NNC(=O)CC4)cc3Cl)CC2)cc1` [Compound 8o, 4-[3-(1-{2-[2-chloro-4-(6-oxo-1,4,5,6-tetrahydro-pyridazin-3-yl)-phenoxy]-acetyl}-piperidin-4-ylamino)-2-hydroxy-propoxy]-benzonitrile]: the half-inhibitory concentration (IC50) (read-out: PDE3 inhibition IC50) was under 1000 nM.

In the case of `COCCc1ccc(OC[C@@H](O)CNC2CCN(C(=O)COc3ccc(C4=NNC(=O)CC4)cc3Cl)CC2)cc1` [Compound 8r, 6-{3-chloro-4-[2-(4-{2-hydroxy-3-[4-(2-methoxy-ethyl)-phenoxy]-propylamino}-piperidin-1-yl)-2-oxo-ethoxy]-phenyl}-4,5-dihydro-2H-pyridazin-3-one], the IC50 (read-out: PDE3 inhibition IC50) is under 1000 nM.

Regarding `O=C1CCC(c2ccc(OCC(=O)N3CCC(NC[C@H](O)COc4cccc5[nH]c6ccccc6c45)CC3)c(Cl)c2)=NN1` [Compound 17, 6-[4-(2-{4-[(S)-3-(9H-Carbazol-4-yloxy)-2-hydroxy-propylamino]-piperidin-1-yl}-2-oxo-ethoxy)-3-chloro-phenyl]-4,5-dihydro-2H-pyridazin-3-one], the concentration for half-maximal inhibition (IC50) (read-out: PDE3 inhibition IC50) is under 1000 nM.

As to `O=C1CCC(c2ccc(OCCNC[C@H](O)COc3cccc4[nH]c5ccccc5c34)c(Cl)c2)=NN1` [Compound 22, 6-(4-{2-[(S)-3-(9H-carbazol-4-yloxy)-2-hydroxy-propylamino]-ethoxy}-3-chloro-phenyl)-4,5-dihydro-2H-pyridazin-3-one], the IC50 is under 1000 nM (read-out: PDE3 inhibition IC50) and under 100 nM under setting [1].

For the compound `O=C1CCC(c2ccc(OCCCNC[C@H](O)COc3cccc4[nH]c5ccccc5c34)c(Cl)c2)=NN1` [Compound 29, 6-(4-{3-[(S)-3-(9H-Carbazol-4-yloxy)-2-hydroxy-propylamino]-propoxy}-3-chloro-phenyl)-4,5-dihydro-2H-pyridazin-3-one], the IC50 (read-out: PDE3 inhibition IC50) was under 1000 nM and the IC50 under setting [1] is under 100 nM.

On to `O=C1CCC(c2ccc(OCC(=O)N3CCC(NC[C@H](O)COc4ccc5c(c4)[nH]c4ccccc45)CC3)c(Cl)c2)=NN1` [Compound 33, 6-[4-(2-{4-[(S)-3-(9H-Carbazol-2-yloxy)-2-hydroxy-propylamino]-piperidin-1-yl}-2-oxo-ethoxy)-3-chloro-phenyl]-4,5-dihydro-2H-pyridazin-3-one], for which the IC50 (read-out: PDE3 inhibition IC50) is under 1000 nM.

In the case of `O=C1CCC(c2ccc(OCCNCC(O)COc3ccc4c(c3)[nH]c3ccccc34)c(Cl)c2)=NN1` (stereo not shown) [Compound 34, 6-(4-{2-[3-(9H-carbazol-2-yloxy)-2-hydroxy-propylamino]-ethoxy}-3-chloro-phenyl)-4,5-dihydro-2H-pyridazin-3-one], the IC50 (read-out: PDE3 inhibition IC50) is under 1000 nM.

With `O=C1CCC(c2ccc(OCCCNC[C@H](O)COc3ccc4c(c3)[nH]c3ccccc34)c(Cl)c2)=NN1` [Compound 35, 6-(4-{3-[(S)-3-(9H-Carbazol-2-yloxy)-2-hydroxy-propylamino]-propoxy}-3-chloro-phenyl)-4,5-dihydro-2H-pyridazin-3-one], the IC50 (read-out: PDE3 inhibition IC50) is under 1000 nM.

Take `COCCc1ccc(OC[C@@H](O)CNCCCOc2ccc(C3=NNC(=O)CC3)cc2Cl)cc1` [Compound 36]: the IC50 reads like this: (read-out: PDE3 inhibition IC50) under 1000 nM; under setting [1], under 100 nM.

In the case of `COCCc1ccc(OC[C@@H](O)CNC(C)(C)CNC(=O)COc2ccc(C3=NNC(=O)CC3)cc2Cl)cc1` [Compound 40, 2-[2-Chloro-4-(6-oxo-1,4,5,6-tetrahydro-pyridazin-3-yl)-phenoxy]-N-(2-{(S)-2-hydroxy-3-[4-(2-methoxy-ethyl)-phenoxy]-propylamino}-2-methyl-propyl)-acetamide], the half-maximal inhibitory concentration (IC50) (read-out: PDE3 inhibition IC50) is under 1000 nM.

Turning to `COCCc1ccc(OC[C@@H](O)CNC2CCN(C(=O)COc3ccc(C4=NNC(=O)CC4)cc3Cl)C2)cc1` (stereo partly drawn) [Compound 42, 6-{3-Chloro-4-[2-(3-{(S)-2-hydroxy-3-[4-(2-methoxy-ethyl)-phenoxy]-propylamino}-pyrrolidin-1-yl)-2-oxo-ethoxy]-phenyl}-4,5-dihydro-2H-pyridazin-3-one], where the note is “read-out: PDE3 inhibition IC50”, the IC50 was under 1000 nM.

On to `COCCc1ccc(OC[C@@H](O)CNCCCCCOc2ccc(C3=NNC(=O)CC3)cc2Cl)cc1` [Compound 46], for which the IC50 (read-out: PDE3 inhibition IC50) was under 1000 nM.

For `COCCc1ccc(OC[C@@H](O)CNC2CN(C(=O)COc3ccc(C4=NNC(=O)CC4)cc3Cl)C2)cc1` [Compound 48, 6-{3-Chloro-4-[2-(3-{(S)-2-hydroxy-3-[4-(2-methoxy-ethyl)-phenoxy]-propylamino}-azetidin-1-yl)-2-oxo-ethoxy]-phenyl}-4,5-dihydro-2H-pyridazin-3-one], the IC50 (read-out: PDE3 inhibition IC50) was under 1000 nM.

Regarding `O=C1CCC(c2ccc(OCCNCC(O)COc3cccc4[nH]ccc34)c(Cl)c2)=NN1` (stereo not shown) [Compound 52], the IC50 is, setting by setting: (read-out: PDE3 inhibition IC50) under 1000 nM; under setting [1], under 100 nM.

Consider `O=C1CCC(c2ccc(OCCCCNCC(O)COc3cccc4[nH]c5ccccc5c34)c(Cl)c2)=NN1` (stereo not shown) [Compound 56], for which the IC50 was under 1000 nM (read-out: PDE3 inhibition IC50) and under 100 nM under setting [1].

For `O=C1CCC(c2ccc(OCCCCCNCC(O)COc3cccc4[nH]c5ccccc5c34)c(Cl)c2)=NN1` (stereo not shown) [Compound 57], the IC50 (read-out: PDE3 inhibition IC50) was under 1000 nM.

Source of the values: patent US20080255134A1 (Artesian Therapeutics, Inc., priority 2004, published 2008).
